In the supplement of paper PMC10307832:

Experiments:
Experiment in all cases: relative viability (nuclei count vs DMSO), 5 days (fraction); higher = more cells survive
[1] = compound: COc1cc2nc(N3CCCN(C)CC3)nc(NC3CCN(Cc4ccccc4)CC3)c2cc1OC + COc1cc2c(Oc3ccc(NC(=O)C4(C(=O)Nc5ccc(F)cc5)CC4)cc3F)ccnc2cc1OCCCN1CCOCC1 [Foretinib] (partner 0.25 µM)
In short: (§1)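 For relative viability, nuclei counts in treated wells were divided by those in vehicle wells. Lung cancer cell lines had been pin-tool dosed in 1536-well plates the day after seeding and cultured for 5 days, then fixed and stained in one step (final 0.05% Triton X-100, 1% formaldehyde, 1 ug/ml Hoechst) and imaged at 4×. Doses were one drug alone or a fixed anchor-drug dose plus five library-drug doses (not always all listed) in √10 steps, and values are duplicate-plate medians.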

AZD6482 + Pictilisib = compound: Cc1cc([C@@H](C)Nc2ccccc2C(=O)O)c2nc(N3CCOCC3)cc(=O)n2c1 [AZD6482] + CS(=O)(=O)N1CCN(Cc2cc3nc(-c4cccc5[nH]ncc45)nc(N4CCOCC4)c3s2)CC1 [Pictilisib] (partner 1 µM)
In short: as §1

[2] = compound: COc1cc2nc(N3CCCN(C)CC3)nc(NC3CCN(Cc4ccccc4)CC3)c2cc1OC + C[C@@H](Oc1cc(-c2cnn(C3CCNCC3)c2)cnc1N)c1c(Cl)ccc(F)c1Cl [Crizotinib] (partner 1 µM)
In short: as §1

AZD6482 + Trametinib = compound: Cc1cc([C@@H](C)Nc2ccccc2C(=O)O)c2nc(N3CCOCC3)cc(=O)n2c1 [AZD6482] + CC(=O)Nc1cccc(-n2c(=O)n(C3CC3)c(=O)c3c(Nc4ccc(I)cc4F)n(C)c(=O)c(C)c32)c1 [Trametinib] (partner 0.02 µM)
In short: as §1

Row | Cell Line | relative viability ([1]; first compound 0.2 µM) | relative viability ([1]; first compound 0.6325 µM) | relative viability ([1]; first compound 2 µM) | relative viability ([1]; first compound 6.325 µM) | relative viability (AZD6482 + Pictilisib; first compound 0.08 µM) | relative viability (AZD6482 + Pictilisib; first compound 0.253 µM) | relative viability (AZD6482 + Pictilisib; first compound 0.8 µM) | relative viability (AZD6482 + Pictilisib; first compound 2.53 µM) | relative viability (AZD6482 + Pictilisib; first compound 8 µM) | relative viability ([2]; first compound 0.2 µM) | relative viability ([2]; first compound 0.6325 µM) | relative viability ([2]; first compound 2 µM) | relative viability ([2]; first compound 6.325 µM) | relative viability (AZD6482 + Trametinib; first compound 0.08 µM) | relative viability (AZD6482 + Trametinib; first compound 0.253 µM) | relative viability (AZD6482 + Trametinib; first compound 0.8 µM) | relative viability (AZD6482 + Trametinib; first compound 2.53 µM) | relative viability (AZD6482 + Trametinib; first compound 8 µM)
1 | NCI-H1651 | 0.85 | 0.688 | 0.934 | 0.807 | 0.596 | 0.58 | 0.569 | 0.432 | 0.508 | 0.862 | 0.849 | 0.896 | 0.859 | 0.767 | 0.7 | 0.835 | 0.691 | 0.68
2 | NCI-H441 | 0.957 | 0.954 | 0.928 | 1.02 | 0.453 | 0.389 | 0.408 | 0.32 | 0.431 | 0.656 | – | 0.59 | 0.701 | 0.422 | 0.435 | 0.39 | – | 0.312
3 | LCLC-103H | 0.826 | 0.857 | 0.825 | 0.772 | 0.6 | 0.627 | 0.636 | 0.439 | 0.591 | 1 | 0.973 | 1.14 | 1.06 | 0.661 | 0.607 | 0.649 | 0.547 | 0.496
4 | LCLC-97TM1 | 0.951 | 0.994 | 0.913 | 0.844 | 0.246 | 0.175 | 0.245 | 0.176 | 0.146 | 0.252 | – | 0.599 | 0.313 | 0.2 | 0.202 | 0.171 | – | 0.154
5 | NCI-H727 | 0.771 | 1.04 | 0.889 | 0.832 | 0.357 | 0.302 | 0.356 | – | 0.404 | 0.757 | 0.752 | 1.13 | 0.592 | 0.382 | 0.358 | 0.394 | – | 0.386
6 | NCI-H1355 | 0.973 | 0.968 | 1.05 | 0.919 | 0.302 | 0.43 | 0.425 | 0.244 | 0.453 | 1.08 | 1.17 | 1.01 | 0.993 | 0.345 | 0.374 | 0.37 | 0.339 | 0.305
7 | HOP-62 | 1.06 | 1.09 | 1.1 | 1.15 | 0.76 | 0.741 | 0.8 | 0.556 | 0.667 | 0.936 | 0.822 | 0.764 | 0.943 | 0.247 | 0.342 | 0.242 | 0.262 | 0.232
8 | NCI-H2085 | 0.917 | 0.926 | 0.965 | 0.944 | 0.428 | 0.359 | 0.404 | 0.33 | 0.407 | 0.866 | 0.842 | 0.859 | 0.776 | 0.266 | 0.231 | 0.218 | 0.223 | 0.218
